This note sets out measurements from patent publication US6429326B1, “Benzylidenecamphor-substituted silanes/organosiloxanes for use in photostabilizing sunscreen compositions comprising dibenzoylmethane compounds” (Societe L'Oreal, priority 1998, dated 2002).

By melting point is commonly meant the temperature of the solid-liquid transition. `CC12CCC(/C(=C\c3ccc(OCCC[Si](C)(O[Si](C)(C)C)O[Si](C)(C)C)cc3)C1=O)C2(C)C` (stereo not drawn) had a melting point of 47 to 48 °C.

The compound `COc1cc(/C=C2/C(=O)C3(C)CCC2C3(C)C)ccc1OCCC[Si](C)(C)C` (stereo not drawn) showed a melting point of 79 to 80 °C.

In the case of `CC12CCC(/C(=C\c3ccc(OCCC[Si](C)(C)C)cc3)C1=O)C2(C)C` (stereo not drawn), the melting point lay in the range of 100 to 101 °C.
